Measured values: ChEMBL document CHEMBL1201862, “PubChem BioAssay data set” (2004)
Calls of active or inactive are those of the source.

Legend:
[1] = A Cell Based Secondary Assay To Explore Cytotoxicity of Compounds that Sensitize Mycobacterium Tuberculosis to Beta-Lactam Antibiotics.; assay type: functional
Jurkat = assay: blockers of NF-kB activation in T cells – Jurkat, luciferase reporter, luminescence, B- and T-cell, dose response (AID 489004); assay type: functional, cell-based; details: Homo sapiens;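 further: NF-kB luciferase reporter Jurkat cells stimulated with PMA plus ionomycin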
[2] = Luminescence Cell-Based Dose Confirmation HTS to Identify Inhibitors of Platelet Dense Granule Release. [Related pubchem assays: 1663 (Primary HTS), 1678 (Summary of Project)]; assay type: functional
[3] = general cell-killing toxicity readout – plate reader, dry powder samples, cytotoxicity control for PAX8 inhibitor project, dose response (AID 743021); assay type: functional, cell-based
[4] = HEK-293T viability loss, compound-treated – cell-based, uHTS hits, cytotoxicity control for B/T-cell NF-kB inhibitor project, dose response (AID 489019); assay type: functional;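 further: IC50 reflects cytotoxicity as loss of cell viability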
[5] = alpha-synuclein stem-loop translation blockers – luminescence, H4 neuroglioblastoma cells, dose confirmation, confirmation (AID 2454); assay type: functional, cell-based;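 further: H4 neuroglioblastoma cells carrying an alpha-synuclein 5'UTR luciferase reporter; potency for inhibition of the luciferase signal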
[6] = biological target: Luciferin 4-monooxygenase (Photinus pyralis, UniProt P08659); assay: inhibition of purified Photinus pyralis luciferase – biochemical, luminescence, dose response (AID 1891)
cells [7] = assay: cells
[8] = reduction of Shn3 3'UTR-driven luciferase in osteoblasts – cell-based, Clone20 osteoblasts, firefly luciferase, cherry-picked, dose response (AID 624132); assay type: functional;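 further: firefly luciferase luminescence from reporter carrying the Shn3 3'UTR in osteoblasts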
[9] = loss of viability in HepG2 cells – cell-based, CellTiter-Glo, cherry-picked, cytotoxicity control for Shn3 inhibitor project, dose response (AID 624134); assay type: functional
[10] = Luminescence Cell-Based Dose Response HTS to Identify Inhibitors of 5'UTR Stem-Loop Driven Prion Protein mRNA Translation in H4 Neuroglioblastoma Cells. [Related pubchem assays: 1827 (Project Summary), 1813 (Primary HTS)]; assay type: functional
[11] = biological target: T1, Oxysterols receptor LXR-beta (Homo sapiens, UniProt P55055); assay type: functional, cell-based;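 further: Cell-based luminescence dose-response assay of agonist activity at LXR, run as a confirmatory counterscreen to a daf-12 agonist screen; HEK293 cells with Gal4-LXR fusion and GAL4-driven luciferase reporter; agonist potency from rising luciferase signal of a Gal4-LXR reporter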
T1 sequence (P55055 whole entry): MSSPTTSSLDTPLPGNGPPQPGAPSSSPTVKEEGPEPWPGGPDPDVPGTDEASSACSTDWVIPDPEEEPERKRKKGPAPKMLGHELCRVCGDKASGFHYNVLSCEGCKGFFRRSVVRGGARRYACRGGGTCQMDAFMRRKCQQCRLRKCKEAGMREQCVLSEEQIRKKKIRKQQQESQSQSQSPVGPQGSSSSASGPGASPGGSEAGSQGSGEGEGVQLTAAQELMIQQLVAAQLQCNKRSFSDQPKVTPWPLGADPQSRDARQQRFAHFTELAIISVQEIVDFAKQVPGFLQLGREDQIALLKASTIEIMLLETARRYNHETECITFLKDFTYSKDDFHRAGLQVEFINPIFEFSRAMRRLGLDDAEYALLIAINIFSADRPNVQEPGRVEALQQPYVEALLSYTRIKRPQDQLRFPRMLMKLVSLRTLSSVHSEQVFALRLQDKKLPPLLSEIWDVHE

cells [12] = assay type: functional, cell-based
BJ [13] = assay: BJ-TERT-LT-ST fibroblast viability loss – cell-based, RAS-independent, luminescence, dose response (AID 1935); assay type: functional; details: Homo sapiens;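 further: BJ fibroblasts immortalized with TERT plus LT and ST oncogenes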
[14] = alpha-synuclein stem-loop luciferase translation blockers – H4 neuroglioma cells, luminescence, confirmation (AID 1988); assay type: functional, cell-based
[15] = luciferase reporter signal reduction – luminescence, H4-C neuroglioblastoma cells, dose response (AID 2458); assay type: functional, cell-based;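 further: H4 neuroglioblastoma cells stably carrying a luciferase reporter gene fusion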
BJ [16] = assay: BJ-TERT fibroblast viability loss – cell-based, RAS-independent, luminescence, dose response (AID 1933); assay type: functional; details: Homo sapiens
BJ [17] = assay: cells; assay type: functional, cell-based; details: Homo sapiens
[18] = DRD fibroblast viability loss – cell-based, non-viral oncogenic, luminescence, dose response (AID 1934); assay type: functional; details: Homo sapiens
[19] = luciferase reporter signal suppression in cells – H4 neuroglioma cells, luminescence, dose response (AID 1990); assay type: functional, cell-based
Paired box protein Pax-8 = Paired box protein Pax-8 (Homo sapiens, UniProt Q06710); assay: PAX8 transcriptional activity inhibition in RMG-I – RMG-I cells, luciferase, cherry-pick, dose response (AID 687027); assay type: functional, cell-based;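 further: luciferase reporter driven by Pax8 target thyroperoxidase promoter measured by SteadyGlo luminescence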
[20] = M. tuberculosis H37Rv growth inhibitors, H37Rv strain (AID 1626); assay type: functional
cells [21] = assay type: functional, cell-based; remark: listed apart in the source
cells [22] = assay type: functional, cell-based; remark: listed apart in the source
[23] = biological target: Voltage-gated inwardly rectifying potassium channel KCNH2 (Homo sapiens, UniProt Q12809); assay: concentration-dependent hERG rescue from blockers – cell-based, thallium flux, dose response (AID 2121); assay type: ADME
[24] = biological target: T2, Mannose-6-phosphate isomerase (Homo sapiens, UniProt P34949); assay: MPI enzyme activity inhibition – biochemical, fluorescence intensity, coupled assay, primary screen (AID 1209)
T2 sequence (P34949 whole entry): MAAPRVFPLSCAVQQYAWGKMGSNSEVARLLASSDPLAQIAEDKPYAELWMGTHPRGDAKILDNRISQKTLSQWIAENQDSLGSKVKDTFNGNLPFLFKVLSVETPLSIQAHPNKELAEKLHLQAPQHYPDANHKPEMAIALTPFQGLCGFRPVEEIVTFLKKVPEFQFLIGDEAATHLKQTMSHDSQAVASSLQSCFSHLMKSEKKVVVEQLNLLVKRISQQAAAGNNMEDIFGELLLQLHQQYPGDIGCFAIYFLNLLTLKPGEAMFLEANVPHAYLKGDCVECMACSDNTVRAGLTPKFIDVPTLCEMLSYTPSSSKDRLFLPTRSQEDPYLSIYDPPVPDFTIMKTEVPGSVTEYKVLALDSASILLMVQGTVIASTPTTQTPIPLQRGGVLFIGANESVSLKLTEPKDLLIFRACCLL

[25] = biological target: T2, Mannose-6-phosphate isomerase; assay: MPI inhibition at elevated mannose 6-phosphate – biochemical, fluorescence intensity, high mannose 6-phosphate, primary screen (AID 1220)
Cytochrome P450 2C9 = Cytochrome P450 2C9 (Homo sapiens, UniProt P11712)
Cytochrome P450 1A2 = biological target: T3, Cytochrome P450 1A2 (Homo sapiens, UniProt P05177);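 further: PubChem cytochrome P450 panel assay, CYP1A2 panel member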
T3 sequence (P05177 whole entry): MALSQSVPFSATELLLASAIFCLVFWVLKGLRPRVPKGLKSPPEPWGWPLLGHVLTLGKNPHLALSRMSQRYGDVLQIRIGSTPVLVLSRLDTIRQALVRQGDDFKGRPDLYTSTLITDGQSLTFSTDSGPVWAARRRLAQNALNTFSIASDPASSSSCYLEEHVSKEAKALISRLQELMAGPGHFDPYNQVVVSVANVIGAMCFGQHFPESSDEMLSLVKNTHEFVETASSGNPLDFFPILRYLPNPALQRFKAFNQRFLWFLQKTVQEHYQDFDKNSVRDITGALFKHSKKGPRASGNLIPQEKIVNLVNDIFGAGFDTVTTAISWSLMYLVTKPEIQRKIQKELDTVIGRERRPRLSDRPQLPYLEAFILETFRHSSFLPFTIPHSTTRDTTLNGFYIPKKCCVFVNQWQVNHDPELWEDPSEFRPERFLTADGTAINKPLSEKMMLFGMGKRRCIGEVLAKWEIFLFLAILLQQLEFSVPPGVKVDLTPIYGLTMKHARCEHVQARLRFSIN

Cytochrome P450 2C19 = Cytochrome P450 2C19 (Homo sapiens, UniProt P33261); assay: Cytochrome panel assay with activity outcomes. Panel member name: p450-cyp2c19 Compounds with AC50 equal or less than 10 uM are considered active; assay type: functional; details: read-out: AC50
[26] = Luminescence Cell-Based Dose Retest to Confirm Inhibitors of Cancer Stem Cells. [Related pubchem assays (depositor defined):AID2717, AID2721]; assay type: functional; details: Homo sapiens
[27] = biological target: T4, Heat shock factor protein 1 (Mus musculus, UniProt P38532); assay: decrease of HSF1-responsive luciferase luminescence – cell-based, NIH3T3, dose retest, confirmation (AID 2382); assay type: functional;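 further: NIH3T3 fibroblasts with HSF1-driven luciferase reporter stressed by proteasome inhibitor MG132; luminescence from HSF1-driven luciferase expression after 8 hours of MG132 stress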
T4 sequence (P38532 whole entry): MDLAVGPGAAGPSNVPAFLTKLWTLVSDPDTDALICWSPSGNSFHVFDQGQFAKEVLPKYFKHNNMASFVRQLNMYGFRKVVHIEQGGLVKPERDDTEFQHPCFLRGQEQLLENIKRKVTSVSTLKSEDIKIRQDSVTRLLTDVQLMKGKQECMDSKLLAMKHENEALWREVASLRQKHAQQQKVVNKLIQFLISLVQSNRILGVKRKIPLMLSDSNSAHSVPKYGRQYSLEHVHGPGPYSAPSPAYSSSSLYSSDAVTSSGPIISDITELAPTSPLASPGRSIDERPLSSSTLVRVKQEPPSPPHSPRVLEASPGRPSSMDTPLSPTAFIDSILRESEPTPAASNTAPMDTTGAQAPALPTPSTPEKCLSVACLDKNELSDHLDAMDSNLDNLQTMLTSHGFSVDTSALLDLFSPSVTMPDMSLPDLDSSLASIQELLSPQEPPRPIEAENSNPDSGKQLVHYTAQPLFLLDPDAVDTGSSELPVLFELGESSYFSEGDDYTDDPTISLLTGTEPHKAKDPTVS

[28] = HEK-293T viability loss after treatment – luminescence, T-cell screen hits, cytotoxicity control for TCR NF-kB inhibitor project, dose response (AID 489026); assay type: functional, cell-based;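 further: cells exposed to compound about 14 hours before the viability readout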
[29] = CCR5-tropic HIV-1 fusion blockers – cell-based, CCR5-tropic Env, dose response (AID 2279); assay type: functional
[30] = biological target: T5, Microphthalmia-associated transcription factor (Homo sapiens, UniProt O75030); assay: reducers of TRPM1 reporter luminescence, concentration series – cell-based, SK-MEL-5, cherry-picked, set 3, MITF inhibitor project, dose response (AID 493073); assay type: functional;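 further: SK-MEL-5 melanoma cells with luciferase driven by the MITF target TRPM1 promoter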
T5 sequence (O75030 whole entry): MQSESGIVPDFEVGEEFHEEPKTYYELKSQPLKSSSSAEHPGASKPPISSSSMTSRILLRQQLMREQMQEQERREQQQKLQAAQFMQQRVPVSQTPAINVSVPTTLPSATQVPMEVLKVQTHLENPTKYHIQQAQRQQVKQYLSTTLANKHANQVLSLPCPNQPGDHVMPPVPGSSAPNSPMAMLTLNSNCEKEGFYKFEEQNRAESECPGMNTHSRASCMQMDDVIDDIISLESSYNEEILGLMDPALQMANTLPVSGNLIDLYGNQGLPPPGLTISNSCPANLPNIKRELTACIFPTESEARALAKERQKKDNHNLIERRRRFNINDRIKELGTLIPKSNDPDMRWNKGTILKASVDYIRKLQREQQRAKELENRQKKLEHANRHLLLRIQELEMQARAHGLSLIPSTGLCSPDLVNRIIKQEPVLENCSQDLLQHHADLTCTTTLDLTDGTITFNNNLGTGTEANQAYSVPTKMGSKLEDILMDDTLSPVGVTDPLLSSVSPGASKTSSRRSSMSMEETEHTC

Voltage-gated inwardly rectifying potassium channel KCNH2, sequence (Q12809 whole entry): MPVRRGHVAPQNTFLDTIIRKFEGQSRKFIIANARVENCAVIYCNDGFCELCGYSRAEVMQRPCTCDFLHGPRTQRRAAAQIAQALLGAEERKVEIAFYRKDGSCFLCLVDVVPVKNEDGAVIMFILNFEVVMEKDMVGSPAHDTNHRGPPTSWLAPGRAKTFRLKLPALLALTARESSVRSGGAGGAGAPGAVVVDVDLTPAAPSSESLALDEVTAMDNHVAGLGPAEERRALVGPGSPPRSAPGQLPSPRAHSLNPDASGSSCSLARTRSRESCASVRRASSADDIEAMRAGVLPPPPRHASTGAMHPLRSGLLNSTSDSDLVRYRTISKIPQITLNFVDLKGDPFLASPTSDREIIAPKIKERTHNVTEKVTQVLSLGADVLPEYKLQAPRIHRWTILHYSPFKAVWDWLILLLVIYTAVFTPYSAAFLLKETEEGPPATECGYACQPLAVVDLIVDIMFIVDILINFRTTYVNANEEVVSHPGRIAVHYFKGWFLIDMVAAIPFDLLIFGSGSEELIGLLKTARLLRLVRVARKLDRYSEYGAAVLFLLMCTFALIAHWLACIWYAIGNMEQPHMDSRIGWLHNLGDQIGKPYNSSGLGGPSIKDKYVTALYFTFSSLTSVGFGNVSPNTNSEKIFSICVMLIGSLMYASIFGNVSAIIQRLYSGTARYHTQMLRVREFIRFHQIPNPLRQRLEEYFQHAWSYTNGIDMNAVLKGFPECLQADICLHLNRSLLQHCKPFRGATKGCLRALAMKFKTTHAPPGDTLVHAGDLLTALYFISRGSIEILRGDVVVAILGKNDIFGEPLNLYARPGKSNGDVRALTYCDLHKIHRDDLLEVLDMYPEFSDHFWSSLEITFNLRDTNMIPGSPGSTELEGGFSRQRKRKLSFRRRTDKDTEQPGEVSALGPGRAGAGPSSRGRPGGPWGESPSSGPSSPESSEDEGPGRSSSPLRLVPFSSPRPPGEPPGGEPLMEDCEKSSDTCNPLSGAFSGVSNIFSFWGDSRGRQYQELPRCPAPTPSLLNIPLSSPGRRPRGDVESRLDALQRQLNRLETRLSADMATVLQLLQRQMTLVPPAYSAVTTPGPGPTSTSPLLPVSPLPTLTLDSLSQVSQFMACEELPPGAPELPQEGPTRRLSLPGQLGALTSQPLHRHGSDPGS
Paired box protein Pax-8, sequence (Q06710 whole entry): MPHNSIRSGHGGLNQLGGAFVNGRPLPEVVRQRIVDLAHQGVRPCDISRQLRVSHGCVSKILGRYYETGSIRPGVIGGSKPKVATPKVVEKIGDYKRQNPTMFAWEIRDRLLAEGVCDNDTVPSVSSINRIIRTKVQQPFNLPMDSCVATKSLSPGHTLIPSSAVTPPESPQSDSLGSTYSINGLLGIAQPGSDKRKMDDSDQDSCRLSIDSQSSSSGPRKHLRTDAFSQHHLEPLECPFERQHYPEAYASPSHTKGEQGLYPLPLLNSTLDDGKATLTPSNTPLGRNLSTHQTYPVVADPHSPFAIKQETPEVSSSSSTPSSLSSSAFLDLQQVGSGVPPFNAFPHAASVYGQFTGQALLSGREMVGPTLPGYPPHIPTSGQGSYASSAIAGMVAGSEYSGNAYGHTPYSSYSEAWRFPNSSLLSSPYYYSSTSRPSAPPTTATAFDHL
Luciferin 4-monooxygenase, sequence (P08659 whole entry): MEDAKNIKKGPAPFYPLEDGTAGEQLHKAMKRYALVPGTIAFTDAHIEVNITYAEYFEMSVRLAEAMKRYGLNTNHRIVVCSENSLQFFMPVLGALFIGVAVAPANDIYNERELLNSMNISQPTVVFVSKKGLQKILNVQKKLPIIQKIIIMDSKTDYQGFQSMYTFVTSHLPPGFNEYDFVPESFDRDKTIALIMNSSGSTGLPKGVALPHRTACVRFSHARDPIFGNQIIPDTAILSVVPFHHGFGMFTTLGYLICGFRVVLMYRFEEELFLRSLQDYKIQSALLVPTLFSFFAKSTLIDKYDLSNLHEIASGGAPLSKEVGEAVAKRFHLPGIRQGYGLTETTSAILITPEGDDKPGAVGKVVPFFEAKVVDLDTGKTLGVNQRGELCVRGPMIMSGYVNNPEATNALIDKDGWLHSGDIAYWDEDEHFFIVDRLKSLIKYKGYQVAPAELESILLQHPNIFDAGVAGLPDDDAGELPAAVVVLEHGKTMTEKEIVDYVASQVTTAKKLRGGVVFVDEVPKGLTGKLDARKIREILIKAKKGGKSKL
Cytochrome P450 2C19, sequence (P33261 whole entry): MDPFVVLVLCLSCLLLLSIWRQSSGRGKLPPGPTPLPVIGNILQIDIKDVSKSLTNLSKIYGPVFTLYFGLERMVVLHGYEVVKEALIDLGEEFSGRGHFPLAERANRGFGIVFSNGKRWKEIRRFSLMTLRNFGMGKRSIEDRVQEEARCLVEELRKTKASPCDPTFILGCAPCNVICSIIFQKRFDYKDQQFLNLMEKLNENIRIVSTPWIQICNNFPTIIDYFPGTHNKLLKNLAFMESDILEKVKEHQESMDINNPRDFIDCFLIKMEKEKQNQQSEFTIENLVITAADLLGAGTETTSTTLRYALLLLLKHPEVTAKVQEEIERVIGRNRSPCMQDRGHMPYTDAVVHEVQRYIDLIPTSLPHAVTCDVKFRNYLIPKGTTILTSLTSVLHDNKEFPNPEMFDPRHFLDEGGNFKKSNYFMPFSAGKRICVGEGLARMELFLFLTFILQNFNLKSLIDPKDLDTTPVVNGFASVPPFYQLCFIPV
Cytochrome P450 2C9, sequence (P11712 whole entry): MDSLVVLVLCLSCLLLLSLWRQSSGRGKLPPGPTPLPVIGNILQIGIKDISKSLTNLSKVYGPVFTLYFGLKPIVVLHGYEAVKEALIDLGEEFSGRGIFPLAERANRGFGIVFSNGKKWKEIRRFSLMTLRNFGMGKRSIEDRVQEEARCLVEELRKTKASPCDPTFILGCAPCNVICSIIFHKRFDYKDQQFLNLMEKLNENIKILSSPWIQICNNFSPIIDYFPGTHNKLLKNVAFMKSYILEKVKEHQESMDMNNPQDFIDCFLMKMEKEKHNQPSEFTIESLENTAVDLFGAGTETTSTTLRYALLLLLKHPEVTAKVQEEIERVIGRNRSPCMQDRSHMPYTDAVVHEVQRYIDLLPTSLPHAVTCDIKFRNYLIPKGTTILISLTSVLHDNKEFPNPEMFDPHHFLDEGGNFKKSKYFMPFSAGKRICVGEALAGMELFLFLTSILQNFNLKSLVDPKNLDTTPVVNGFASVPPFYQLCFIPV

Cc1cccc(OCc2n[nH]c(-c3ccccn3)n2)c1
CC50 [1]: 28 µM (active)

O=C(Nc1ccc([N+](=O)[O-])cc1)C(=O)Nc1cccc(C(=O)O)c1
IC50 (Jurkat): 1.57 µM (active) | EC50 [2]: 2.09 µM (active) | AC50 [3]: 5.98 µM (active) | IC50 [4]: > 80 µM (inactive) | EC50 [5]: 0.115 µM (active) | EC50 [6]: 0.984 µM (active) | EC50 (cells [7]): > 67.5 µM (inactive) | AC50 [8]: 4.21 µM (active) | AC50 [9]: 56.2 µM (active) | EC50 [10]: < 0.1 µM (active) | EC50 [11]: > 67.5 µM (inactive) | EC50 (cells [12]): > 12 µM (inconclusive) | EC50 (BJ [13]): > 75 µM (inconclusive) | EC50 [14]: < 0.1 µM (active) | EC50 [15]: 0.126 µM (active) | EC50 (BJ [16]): 16.2 µM (active) | EC50 (BJ [17]): 7.23 µM (active) | EC50 [18]: 8.07 µM (active) | EC50 [19]: < 0.1 µM (active) | AC50 (Paired box protein Pax-8): 5 µM (active)

CCOc1ccc(/C=C/C(=O)c2ccccc2)cc1OC
IC50 [20]: > 100 µM (active) | EC50 (cells [21]): 10.2 µM (active) | EC50 (cells [22]): > 350 µM (not active)

COC(=O)c1c(NS(=O)(=O)c2ccc3ccccc3c2)sc2c1CCCC2
EC50 [23]: 7.18 µM (active)

O=C(NC(=S)Nc1nc2c(s1)CSc1ccccc1-2)c1ccccc1
EC50 [23]: 5.11 µM (active) | IC50 [24]: > 50 µM (not active) | IC50 [25]: > 50 µM (not active)

Cc1cc(C)cc(N2C(=O)CC(Sc3nnc[nH]3)C2=O)c1 (configuration not stated)
IC50 [24]: > 50 µM (not active)

CC(C)(C)c1ccc(OCC(=O)N/N=C/c2cc(Br)ccc2OC(=O)c2ccco2)cc1
CC50 [1]: 15 µM (active) | AC50 (Cytochrome P450 2C9): inconclusive | AC50 (Cytochrome P450 1A2): 5.01 µM (inconclusive) | AC50 (Cytochrome P450 2C19): 1.26 µM (inconclusive) | AC50 [26]: 2.29 µM (active)

Cc1nn(-c2ccccc2Cl)c(Cl)c1/C=N/Nc1nc2ccccc2s1
EC50 [5]: 0.1 µM (active) | EC50 [10]: < 0.1 µM (active) | EC50 (cells [12]): 0.036 µM (active) | EC50 [14]: < 0.1 µM (active) | EC50 [15]: 0.086 µM (active) | EC50 [27]: < 0.16 µM (active) | IC50 [28]: > 80 µM (inactive) | EC50 [19]: < 0.1 µM (active)

COc1cc(/C=N/NS(=O)(=O)c2ccc3ccccc3c2)ccc1OCc1ccc(C(=O)O)cc1
IC50 [29]: 23.6 µM (active) | AC50 [30]: 4.78 µM (active) | EC50 [10]: 10.5 µM (active) | EC50 [14]: 7.05 µM (active) | EC50 [19]: 9.11 µM (inconclusive)
